Measurements as given in patent EP0021685A1.
Values after ≈ are worked out from the molar mass of the structure shown.

Tests used:
[1] = tested on: Trichophyton mentagrophytes; test: Disc-diffusion antifungal test; conditions: for zone of inhibition at 10000 µg/mL: read-out: Zone diameters (mm)
Neurospora crassa = test: Disc-diffusion antifungal test; conditions: read-out: Zone diameters (mm)
Blastomyces dermatitidis = test: Standard agar-dilution test; assay type: cell-based
Histoplasma capsulatum = test: microbe, parasite or virus in culture; assay type: cell-based
physchem = conditions: 66% aqueous dimethylformamide, pH 7.12
Candida albicans = test: Disc-diffusion antifungal test; conditions: 6-mm pads dipped in solutions of test compound

## CCCCC/C=C\C/C=C\CCCCCCCC(=O)N[C@H]1C[C@@H](O)[C@@H](OCCCCCC)NC(=O)[C@@H]2[C@@H](O)[C@@H](C)CN2C(=O)[C@H]([C@@H](C)O)NC(=O)[C@H]([C@H](O)[C@@H](O)c2ccc(O)cc2)NC(=O)[C@@H]2C[C@@H](O)CN2C(=O)[C@H]([C@@H](C)O)NC1=O [R = n-hexyl]
[1]
  zone of inhibition at 10000 µg/mL: 35 mm
Neurospora crassa
  zone of inhibition at 10000 µg/mL: 25 mm

## CCCCC/C=C\C/C=C\CCCCCCCC(=O)N[C@H]1C[C@@H](O)[C@@H](OCCC)NC(=O)[C@@H]2[C@@H](O)[C@@H](C)CN2C(=O)[C@H]([C@@H](C)O)NC(=O)[C@H]([C@H](O)[C@@H](O)c2ccc(O)cc2)NC(=O)[C@@H]2C[C@@H](O)CN2C(=O)[C@H]([C@@H](C)O)NC1=O [R = n-propyl]
[1]
  zone of inhibition at 10000 µg/mL: 35 mm
Neurospora crassa
  zone of inhibition at 10000 µg/mL: 20 mm

## CCCCC/C=C\C/C=C\CCCCCCCC(=O)N[C@H]1C[C@@H](O)[C@@H](OC)NC(=O)[C@@H]2[C@@H](O)[C@@H](C)CN2C(=O)[C@H]([C@@H](C)O)NC(=O)[C@H]([C@H](O)[C@@H](O)c2ccc(O)cc2)NC(=O)[C@@H]2C[C@@H](O)CN2C(=O)[C@H]([C@@H](C)O)NC1=O
Blastomyces dermatitidis
  MIC: 100 µg/mL (≈ 93.1 µM)
Histoplasma capsulatum
  MIC: 100 µg/mL (≈ 93.1 µM)
physchem
  pKa: ~12.9
Candida albicans
  MIC (mcg/disc): 1.25 mcg/disc
[1]; disc-diffusion, 6-mm pads dipped in solutions of test compound
  MIC (mcg/disc): 0.078 mcg/disc
